Test results taken from patent publication US4016272A, “Anthelmintic thiodiphenylamine cupric chloride complex salt” (priority 1975, dated 1977).

Legend:
[1] = meat, milk, and wool
Excerpt: The known preparations are efficient only in respect to the imaginal forms of certain helminth infestation diseases. The novel preparation based on thiodiphenylamine cupric chloride complex salt is not toxic and is convinient in use.

[2] = Lethal dose / toxicity in farm animals; format: in vivo; design: lethal dose LD50 / LD100: unit not given here
[3] = tested on: helminth infestation diseases; assay: Helminthicide action in laboratory and field conditions on farm animals; format: in vivo, sheep, cows, and other farm animals
Excerpt: The helminthicide action has been studied in laboratory and field conditions on sheep, cows, and other farm animals of different age and having various helminth infestation diseases. The course of treatment comprises a single oral administration of the preparation in spring and a repeated single administration in autumn. The preparation efficiency is 95 to 100% for the cured animals.

complex salt of thiodiphenylamine cupric chloride
productivity of farm animals [1]: enhances productivity of farm animals
LD100 ([2]; all varieties of farm animals): 1,200
lethal dose LD50 ([2]; all varieties of farm animals): 1,000
toxicity ([2]; in vivo): not toxic
efficiency for curing various helminth infestation diseases in pre-imaginal and imaginal forms ([3]; pre-imaginal and imaginal forms): highly efficient for curing various helminth infestation diseases in pre-imaginal and imaginal forms
preparation efficiency for the cured animals ([3]; single oral administration in spring and repeated single administration in autumn): 95 to 100%
